Laboratory results published in paper PMC11358017, “Nucleotide metabolism in cancer cells fuels a UDP-driven macrophage cross-talk, promoting immunosuppression and immunotherapy resistance” (Nature Cancer, 2024).

Target: T1, P2Y6 (P2ry6^WT BMDMs) (Mus musculus, UniProt Q9ERK9)
T1 construct: native full-length receptor, endogenous in mouse bone marrow-derived macrophages (BMDMs); no tag
Experiment: Fura-2 intracellular calcium response, BMDMs, Hill fit
Assay type: cell-based
Settings: agonist, native mouse BMDMs, peak F340/F380 normalized to ionomycin, pH 7.4, response absent in P2ry6^ΔMy BMDMs

T1 sequence (Q9ERK9 whole entry): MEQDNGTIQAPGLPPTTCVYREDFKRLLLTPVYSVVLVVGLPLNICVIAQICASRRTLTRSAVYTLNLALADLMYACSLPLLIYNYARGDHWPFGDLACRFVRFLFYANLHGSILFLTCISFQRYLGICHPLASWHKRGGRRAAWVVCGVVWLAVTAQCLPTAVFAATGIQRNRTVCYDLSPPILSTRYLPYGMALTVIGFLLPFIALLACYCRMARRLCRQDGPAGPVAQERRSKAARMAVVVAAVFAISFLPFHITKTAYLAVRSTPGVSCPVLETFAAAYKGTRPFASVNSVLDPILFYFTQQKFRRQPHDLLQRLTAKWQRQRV

## O=c1ccn([C@@H]2O[C@H](COP(=O)(O)OP(=O)(O)O)[C@@H](O)[C@H]2O)c(=O)[nH]1 [UDP]
N = 3
  EC50: 42 ± 5 nM

## O=c1ccn([C@@H]2O[C@H](COP(=O)(O)OP(=O)(O)OP(=O)(O)O)[C@@H](O)[C@H]2O)c(=O)[nH]1 [UTP]
N = 6, possible conversion to UDP by ectonucleotidases
  EC50: 103 ± 12 nM
